Results: US7659277B2, “Ubiquitin ligase inhibitors and methods related thereto” (Proteologies, Ltd., priority 2003, dated 2010)

Legend:
[1] = biological target: T1, POSH (Homo sapiens, UniProt Q7Z6J0); assay: IC50 assay procedure: GST-POSH auto-ubiquitination, homogeneous time-resolved fluorescence (Ub-cryptate / anti-GST XL665); format: biochemical; conditions: ubiquitin ligase activity of POSH; GST-POSH 33 nM, 30 min preincubation
T1 construct: GST-POSH lot NB81/p.118 3.6 mg/ml; fused on or other part: GST tag, used for detection with anti-GST XL665
T1 sequence (Q7Z6J0 1-269 limits assumed): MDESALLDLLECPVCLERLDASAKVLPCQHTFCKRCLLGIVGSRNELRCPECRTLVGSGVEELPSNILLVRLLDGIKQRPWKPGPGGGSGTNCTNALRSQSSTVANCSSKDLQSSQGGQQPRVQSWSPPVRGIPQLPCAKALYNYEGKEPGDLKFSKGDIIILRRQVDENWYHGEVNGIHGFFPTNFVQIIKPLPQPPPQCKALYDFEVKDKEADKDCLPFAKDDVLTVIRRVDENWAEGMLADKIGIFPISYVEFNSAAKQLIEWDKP
Excerpt: In certain preferred embodiments, agents that inhibit (or promote) the ubiquitin ligase activity of a ubiquitin ligase, such as POSH, may be identified using a homogenous time resolved fluorescence assay. Such an assay may employ a GST fused to the RING subunit of a ubiquitin ligase (e.g. POSH). Two flurophore-conjugated detection reagents are also used: anti-GSTXL665 and europium cryptate labeled ubiqutin. The ubiqutination of the ubiquitin ligase by ubiqutin cryptate and binding of the anti-GST tagged XL665 brings the fluorophores into close proximity allowing FRET reaction to occur. Accordingly, FRET serves as a measurement of ubiquitination of the ubiquitin ligase. An enzymatic system may be set up to provide activated ubiquitin, e.g., by providing ubiquitin, an E1 and an E2. Compounds that will not allow the FRET reaction are considered to be inhibitors.
Step 3: establish IC 50 value measurements.
Experimental Protocols: 1. HTS Screening Assay Procedure • Microplates 10109D to 10114D compounds at 1 mM. • (Controls in column 1). • All compounds were perchase from ChemBridge corporation: ChemBridge corporation 16981 Via Tazon, Suite G San Diego, Calif. 92127 a. Microplates Labeling • Put labels to 6 PS U-bottom clear microplate. • Put labels to 18 black microplates (triplicats). b. Microplates Preparation • Put 100 μl GST-POSH at 33 nM in wells of the clear PS U-bottom microplates (exept wells A1-D1). • Negative control: place 100 μl dH2O in wells A1-D1. • (Positive control: place 100 μl GST-POSH at 33 nM in wells E1-H1). • Put 8 μl enzymes solution ×4 to black microplates (column 1 to 11). c. Incubation of E3 with Compounds • Transfer 5 μl of compounds (at 1 mM) to the microplates containing 100 μl GST-POSH. • Add 5 μl of DMSO to controls column 1. • Incubation 30 minutes at RT. d. Enzymatic (Ubiquitination) and Final Steps • Distribution of (triplicate) 3×23 μl incubated compounds into 3 black microplates containing enzymatic solution (on splitting apparatus). • Incubation 30 minutes at 37° C. • Addition of 8 μl EDTA 0.5 M. • Incubation 15 (at least) minutes at RT. • Addition of 30 μl GST XL 665 in reconstitution buffer. • Incubation 45 (at least) minutes at RT. • Reading fluorescence. • Record results in computer. • Put sealing foil back on original and diluted microplates and keep at −70° C. • Always the plates must be closed with lids during each step. 2. […] Microplates Labeling • Put labels to 4 clear PP clear microplate (18.2 μM, 9.1 uM, 1.82 uM, 910 nM,). • Put labels to 5 clear PS U-bottom clear microplate 4.44 μM, 909, 444, 91 and 44 nM) • Put labels to 15 black microplates (triplicates). f. Original Microplate Dilutions • Put DMSO 40 μl to (18.2 μM, 1.82 uM plates) and 20 ul to (9.1 uM, 910 nM plates. • Mix by pipetation the original microplate (3× up and down 45 μl). • Transfer 10 μl of compounds from the original microplate (at 91 μM) to the next microplate (=18.2 μM) on splitting apparatus. • Mix by pipetation the 18.2 uM microplate (3× up and down 45 μl). • Transfer 20 μl of compounds from the 18.2 uM microplate to the next microplate (=9.1 μM) on splitting apparatus. • Mix by pipetation the 9.1 uM microplate (3× up and down 45 μl). • Transfer 10 μl of compounds from the 9.1 uM microplate to the next microplate (=1.82 μM) on splitting apparatus. • Mix by pipetation the 1.82 uM microplate (3× up and down 45 μl). • Transfer 20 μl of compounds from the 1.82 uM microplate to the next microplate (=910 nM) on splitting apparatus • Mix by pipetation. g. Microplates Preparation • Put 123 μl GST-POSH at 33 nM in wells of the 5 clear PS U-bottom clear microplates. • Positive control: place 123 μl GST-POSH at 33 nM in well A12-h12 13 μl DMSO. • Negative control: place 123 μl dH2O in well B1 and 13 μl DMSO. • Put 8 μl enzymes solution ×4 to 15 black microplates. • Controls: put 8 μl enzymes solution ×4 to wells A1 to F1. h. […]

[2] = tested on: HIV-1; assay: HIV maturation (budding) in virus-like particle assay, HIV-1 p24 antigen ELISA; format: cell-based; conditions: Human immunodeficiency virus 1, read-out: Budding (3 μM)
Excerpt: Compounds were further assessed for effects on maturation of HIV particles in a virus-like particle assay.

Structure (SMILES)	IC50 [1] [nM]	activity at 3 µM [2] [%]
Cc1c(Br)c(=O)oc2c(Br)c(O)c(O)cc12 [Compound 83]	1000	–
CC(C)(C)c1ccc(C2=N/C(=C\c3cccs3)C(=O)O2)cc1 [Compound 48]	1300	58
O=C1/C(=C\c2cc(Cl)ccc2O)Sc2ccccc21 [Compound 44]	650	–
CCCOC(=O)c1ccc(/N=C/c2c(O)ccc3ccccc23)cc1 [Compound 69]	700	41
CC(=C\c1ccccc1)/C=C1/NC(=S)NC1=O [Compound 30]	2000	–
